The subject of one assay is Rhizoctonia solani. Put plainly: Protection of corn against infestation with Rhizoctonia solani (seed treatment, infested small-parcel fields). Particulars: corn seed treated with triticonazole 5 gai/100 kg alone; seedlings surviving (from 50) after sowing and emergence; untreated control 46. The format is in vivo. How it is done:
An isolate of Rhizoctonia solani originally isolated from maize was grown on potatoe dextrose agar (PDA) at 20° C. in the dark for 14 days. A vermiculite/maize meal/distilled water mixture (2.7:1:1) was autoclaved at 121° C. for 30 minutes in poly-ethylene “autoclave” bags. Once cool, the mixture was inoculated with 40×5 mm^2 agar disks cut from the Rhizoctonia solani cultures and mixed well. The inoculum bags were sealed and then incubated for 14 days at 22° C. with 16 hours light and 8 hours dark periods. Successful growth was checked by extracting granules of vermiculate and plating on PDA. Infested soil was prepared by mixing peat: sharp washed sand (3:1), removing any large peat clumps, adding maize meal mixture (9:1) and combining the two wells.
Corn seed was either treated with a slurry comprising triticonazole and/or prochloraz in water so that the amounts indicated below were applied per 100 kg of seed, or left untreated (control). Small-parcel fields (1×2 m) were infested with Rhizoctonia solani as described above. After sowing and emergence the number of seedlings surviving (from 50) was determined.

A further assay relates to Pythium ultimum. Put plainly: Protection of corn against infestation with Pythium ultimum (seed treatment, infested small-parcel fields). The format is in vivo. The following applies: corn seed treated with triticonazole 5 gai/100 kg alone; based on a weighted 0-5 infection scale; untreated control 70. On the procedure: An isolate of Pythium ultimum originally isolated from maize was grown on potatoe dex-trose agar (PDA) at 22° C. in the dark for 14 days. A vermiculate/maize meal/distilled water mixture (2.7:1:1) was autoclaved at 121° C. for 30 minutes in polyethylene “auto-clave” bags. Once cool, the mixture was inoculated with 40×5 mm^2 agar disks cut from the Pyhtium ultimum cultures and mixed well. The inoculum bags were sealed and then incubated for 14 days at 21° C. for 14 days in the dark. Successful growth was checked by extracting granules of vermiculate and plating on PDA. Infested soil was prepared by mixing peat: sharp washed sand (3:1) removing any large peat clumps, adding maize meal mixture (40:60 v/v) and combining the two well.
Corn seed was either treated with a slurry comprising triticonazole and/or prochloraz in water so that the amounts indicated below were applied per 100 kg of seed, or left untreated (control). Small-parcel fields (1×2 m) were infested with Pythium ultimum as described above. After sowing and emergence the seedlings the disease index (based on a weighted 0-5 infection scale) was determined.

`CC1(C)CC/C(=C\c2ccc(Cl)cc2)C1(O)Cn1cncn1` (centres unmarked) [Triticonazole, (E)-5-(4-chlorbenzyliden)-2,2-dimethyl-1-(1H-1,2,4-triazol-1-ylmethyl)cyclopentanol]: the “Percentage of plants surviving” value with Rhizoctonia solani is given as 36%. In addition, the Disease index with Pythium ultimum is on record as 71%.
